Earlier results, collected in patent publication US12004493B2, “Late-onset Alzheimer's disease animal model and uses thereof” (The Board of Regents of the University of Oklahoma, priority 2018, dated 2024).

System: early-phase AD patients
Conditions: DAO inhibitor

O=C([O-])c1ccccc1.[Na+] [Sodium benzoate]
cognitive and overall functions: improved cognitive and overall functions
